Reference: patent US9801380B2, “Low VOC gibberellin formulations” (Valent BioSciences Corporation, priority 2013, dated 2017)

Experiment: Stability tests: observation for solubility after mixing
Conditions: 5.95% GA3 TGAI
Procedure: The stability tests were performed as follows. The solvent was charged in a 150 mL glass beaker containing a magnetic stir bar. The solvent was warmed on a hot plate while stirring. The polysorbate surfactant was charged when the solvent temperature reached 30 to 38 degrees Celsius. The formulations were mixed until they were solubilized (1 to 4 minutes). Then the GA3 TGAI was added under stirring and the temperature was raised to 38 to 41 degrees Celsius. The heat was discontinued and the formulations were mixed for 30 to 50 minutes. The formulations were then observed for solubility.

C=C1C[C@]23C[C@@]1(O)CC[C@H]2[C@@]12C=C[C@H](O)[C@@](C)(C(=O)O1)[C@H]2[C@@H]3C(=O)O [GA3, gibberellic acid]
Solubility of GA3 in the formulation (Formulation B (triethyl citrate)): not soluble | Solubility of GA3 in the formulation (Formulations A and D (PEG 300, PEG 400)): soluble
